Data on seven molecules can be found in patent US20230389542A1, “USE OF [(1,5-DIPHENYL-1H-PYRAZOL-3-YL)OXY] ACETIC ACID DERIVATIVES AND THEIR SALTS AND COMPOSITIONS CONTAINING THEM, FOR REDUCING PHYTOTOXIC EFFECTS OF AGROCHEMICALS, IN PARTICULAR OF HERBICIDES, IN USEFUL PLANTS AND CROP PLANTS” (BAYER AKTIENGESELLSCHAFT, priority 2020, published 2023).

Assay [1] has as its system summer wheat (TRZAS; cv. Triso). The assay can be described thus: Relative action (efficacy code): reduction of damage by mesosulfuron-methyl on summer wheat. It counts as in vivo. On the set-up: key: 0: no reduction in damage (appearance corresponding to the herbicide control); 1: slight reduction in damage; 2: distinct reduction in damage; 3: significant reduction in damage; 4: complete reduction in damage (appearance corresponding to the untreated control). As to conditions: visual, 9-13 days after application. On the procedure:
2.3 Relative Action of Selected Compounds of the Invention Using the Example of Reduction of Damage by Mesosulfuron-Methyl on Summer Wheat (TRZAS) The seeds of the crop plants to be treated are laid out in sandy loam in plastic pots (diameter μ4 cm), covered with soil and grown in a greenhouse under good conditions for germination and growth. The trial plants were treated at the early leaf stage (BBCH10-BBCH12). In the course of this, the inventive compounds of the general formula (I) formulated in the form of wettable powders (WP) were sprayed onto the above-ground parts of the plants as an aqueous suspension with a water application rate corresponding to 800 l/ha with addition of wetting agent (e.g. 0.2% Genapol-LRO or 0.2% Mero) in the specified dose. This was followed by the application of the herbicide. For this purpose, mesosulfuron-methyl, formulated in the form of water-dispersible granules (WG), was sprayed onto the above-ground parts of the plants in the form of an aqueous dispersion with a water application rate corresponding to 800 l/ha with addition of wetting agent (e.g. 0.2% Genapol-LRO or 1 l/ha Biopower) in a dose of 40-60 g/ha. The dose of the herbicide was chosen here such that it causes visually apparent damage (min. 30%, max. 75%) compared to untreated crop plants at the evaluation time on a control group of crop plants without safener treatment that were included in the same trial. After application, the plants were cultivated under good growth conditions in a greenhouse. 9-13 days after application, the efficacy of the test compounds was assessed visually. For this purpose, the appearance of the plants treated with the test compound and herbicide was compared to the corresponding herbicide controls (without safener; with clearly visible damage) and the untreated controls (without damage). The damage-reducing effect of the test compounds was expressed here in graded efficacy codes according to the following scheme: • 0: no reduction in damage (appearance corresponding to the herbicide control) • 1: slight reduction in damage • 2: distinct reduction in damage • 3: significant reduction in damage • 4: complete reduction in damage (appearance corresponding to the untreated control) The trials show clear efficacy of the inventive compounds selected by way of example with regard to the reduction in damage to the summer wheat crop plant (TRZAS; cv. Triso) caused by the herbicide mesosulfuron-methyl: […]

Assay [2] relates to summer barley (HORVS; cv. Montoya). The assay can be described thus: Relative action (efficacy code): reduction of damage by mesosulfuron-methyl on summer barley. It counts as in vivo. On the set-up: key: 0: no reduction in damage (appearance corresponding to the herbicide control); 1: slight reduction in damage; 2: distinct reduction in damage; 3: significant reduction in damage; 4: complete reduction in damage (appearance corresponding to the untreated control). As to conditions: visual, 9-13 days after application, 2 repeats coded separately. On the procedure: 2.4 Relative Action of Selected Compounds of the Invention Using the Example of Reduction of Damage by Mesosulfuron-Methyl on Summer Barley (HORVS) The seeds of the crop plants to be treated are laid out in sandy loam in plastic pots (diameter˜4 cm), covered with soil and grown in a greenhouse under good conditions for germination and growth. The trial plants were treated at the early leaf stage (BBCH10-BBCH12). In the course of this, the inventive compounds of the general formula (I) formulated in the form of wettable powders (WP) were sprayed onto the above-ground parts of the plants as an aqueous suspension with a water application rate corresponding to 800 l/ha with addition of wetting agent (e.g. 0.2% Genapol-LRO or 0.2% Mero) in the specified dose. This was followed by the application of the herbicide. For this purpose, mesosulfuron-methyl, formulated in the form of water-dispersible granules (WG), was sprayed onto the above-ground parts of the plants in the form of an aqueous dispersion with a water application rate corresponding to 800 l/ha with addition of wetting agent (e.g. 0.2% Genapol-LRO or 1 l/ha Biopower) in a dose of 40-60 g/ha. The dose of the herbicide was chosen here such that it causes visually apparent damage (min. 30%, max. 75%) compared to untreated crop plants at the evaluation time on a control group of crop plants without safener treatment that were included in the same trial. After application, the plants were cultivated under good growth conditions in a greenhouse. 9-13 days after application, the efficacy of the test compounds was assessed visually. For this purpose, the appearance of the plants treated with the test compound and herbicide was compared to the corresponding herbicide controls (without safener; with clearly visible damage) and the untreated controls (without damage). The damage-reducing effect of the test compounds was expressed here separately for 2 repeats in graded efficacy codes according to the following scheme: • 0: no reduction in damage (appearance corresponding to the herbicide control) • 1: slight reduction in damage • 2: distinct reduction in damage • 3: significant reduction in damage • 4: complete reduction in damage (appearance corresponding to the untreated control) The trials show clear efficacy of the inventive compounds selected by way of example with regard to the reduction in damage to the summer barley crop plant (HORVS; cv. Montoya) caused by the herbicide mesosulfuron-methyl: […]

[3] abbreviates: safener 100 g/ha + mesosulfuron-methyl 40-60 g/ha.
Where [4] appears, read: safener 500 g/ha + mesosulfuron-methyl 40-60 g/ha.

Each structure is given as a SMILES string.

As for `CCOC(=O)COc1cc(-c2ccc(F)cc2)n(-c2ccc(Cl)cc2Cl)n1` [I.11-32], the “Efficacy of the safener (efficacy code)” value in assay [1] (setting [3]), in assay [1] (setting [4]) and in assay [2] (setting [4]) was 2 each time.

As to `COC(=O)COc1cc(-c2ccc(F)cc2F)n(-c2ccc(Cl)cc2F)n1` [I.40-49], the “Efficacy of the safener (efficacy code)” value in assay [1] (setting [3]) is on record as 3; in assay [1] (setting [4]), 3; in assay [2] (setting [3]) it was 2; in assay [2] (setting [4]), 2-3.

For `CCOC(=O)COc1cc(-c2ccc(F)cc2F)n(-c2ccc(Cl)cc2F)n1` [I.41-49], the “Efficacy of the safener (efficacy code)” value in assay [1] (setting [3]) is 3; in assay [1] (setting [4]), 4; in assay [2] (setting [3]), 2; in assay [2] (setting [4]), 2.

As to `O=C(O)COc1cc(-c2ccc(F)cc2F)n(-c2ccc(Cl)cc2F)n1` [I.42-49], the “Efficacy of the safener (efficacy code)” value in assay [1] (setting [3]) was 3; in assay [1] (setting [4]), 4; in assay [2] (setting [3]), 2-3; in assay [2] (setting [4]) it was 3.

Consider `CCOC(=O)COc1cc(-c2ccc(Cl)cc2F)n(-c2ccc(F)cc2Cl)n1` [I.47-48], for which the “Efficacy of the safener (efficacy code)” value amounted to 3 in assay [1] (setting [3]), 4 in assay [1] (setting [4]), 2 in assay [2] (setting [3]) and 3 in assay [2] (setting [4]).

In the case of `CCOC(=O)COc1cc(-c2ccc(Cl)cc2F)n(-c2ccc(Cl)cc2F)n1` [I.47-49], the “Efficacy of the safener (efficacy code)” value in assay [1] (setting [4]) is given as 3; in assay [2] (setting [3]), 2; in assay [2] (setting [4]) it was 3.

With `CCOC(=O)COc1cc(-c2ccc(F)cc2Cl)n(-c2ccc(Cl)cc2F)n1` [I.50-49], the “Efficacy of the safener (efficacy code)” value is 2 in assay [1] (setting [3]), 3 in assay [1] (setting [4]), 2-3 in assay [2] (setting [3]) and 3 in assay [2] (setting [4]).
